Data taken from patent US20260158148A1, “PRODRUG INTENDED FOR THE TREATMENT OF BACTERIAL […] TO A[…] THE BETA-LACTAM FAMILY” (Osta Therapeutics, priority 2022, published 2026).

Test system: beta-lactamase
Assay: In-vitro cleavage of the OSTA-1 prodrug by beta-lactamase (release of trans-cinnamaldehyde monitored by UV absorption at 285 nm)
Type: biochemical
Protocol: Cleavage of the OSTA-1 prodrug was tested in vitro by contact with a beta-lactamase in saline aqueous media.
The cleavage test is performed in physiological saline buffer (Phosphate Buffer Saline, PBS) at pH 7.0. The OSTA-1 molecule is added at a concentration of 100 microM, along with commercial beta-lactamase at a concentration of 1 unit per mL. Incubation is carried out at 37° C. The appearance of free trans-cinnamaldehyde in the medium is then monitored by UV absorption at 285 nm.
The release of the active ingredient, in this case trans-cinnamaldehyde, was monitored by UV absorption at 285 nm. The progress of the release of the prodrug molecule's active ingredient (100 microM) was observed, in the presence and absence of beta-lactamase.

COC(/C=C/c1ccccc1)N(C)C(=O)OCC1=C(C(=O)O)N2C(=O)[C@@H](NC(=O)Cc3cccs3)[C@H]2SC1 (stereo partly drawn) [OSTA-1]
cleavability by beta-lactamase (conclusion) (in vitro, saline aqueous media): cleavable by beta-lactamase and releases the active ingredient | spontaneous release of the active ingredient in the absence of beta-lactamase (prodrug 100 microM, PBS pH 7.0, 37° C., no beta-lactamase, UV absorption at 285 nm): no spontaneous release | release of the active ingredient (trans-cinnamaldehyde) in the presence of beta-lactamase (prodrug 100 microM, commercial beta-lactamase 1 unit per mL, PBS pH 7.0, 37° C., UV absorption at 285 nm, after two hours): released in significant quantities
